EP0049683A2, “Imidazo-rifamycines, process for their preparation, pharmaceutical preparations containing them and their use” (CIBA-GEIGY AG, priority 1980, dated 1982)
In brackets after ≈: the same amount, converted by molar mass.

How the values were obtained:
Type in all cases: cell-based
[1] = test system: Staphylococcus aureus; assay: In vitro antibacterial activity against gram-positive cocci; details: at (at or below) the lowest limit of the tested concentration range, 0,005 y/ml
Source text: (§1) Die neuen erfindungsgemässen Verbindungen der Formel I zeichnen sich vor allem durch ihre wertvollen pharmakologischen Eigenschaften aus: so besitzen sie gemäss den Resultaten in vitro antibiotische, insbesondere antibakterielle Eigenschaften, wie z.B. einerseits gegen grammpositive Kokken, wie Staphylococcus aureus, (im getesteten Konzentrationsbereich 0,005 bis 128 y/ml),andererseits gegen grammnegative Stäbchenbakterien, wie Enterobacteriaceae, z.B. Escherichia coli, Pseudomonas aeruginosa und Proteus morganii (im getesteten Konzentrationsbereich von 1 bis 64 y/ml), sowie gegen Mycobacterium tuberculosis (im getesteten Konzentrationsbereich von 0,48 bis 1,9 y/ml). […] (Für die Testresultate siehe auch Tabelle -1.)
(§2) Auch die neuen erfindungsgemässen Verbindungen der Formeln V und VI zeichnen sich durch analoge wertvolle pharmakologische Eigenschaften aus, d.h. sie besitzen gemäss den Resultaten in vitro antibiotische, insbesondere antibakterielle Eigenschaften, die sich bezüglich des Anwendungsbereichs sowie der getesteten effektiven Konzentrationen den Verbindungen der Formel I praktisch gleichen. […] (Für die Testresultate siehe auch Tabelle 2.)

[2] = test system: Enterobacteriaceae, z.B. Escherichia coli, Pseudomonas aeruginosa und Proteus morganii; assay: In vitro antibacterial activity against gram-negative rods; details: within the stated concentration range, 1 bis 64 y/ml
Source text: as §1, §2

[3] = test system: Mycobacterium tuberculosis; assay: Agar dilution MIC in DST agar (Ericsson and Sherris); details: in vitro; for MIC: Mycobacterium tuberculosis, read-out: MIC Myc. tub.
[4] = test system: Escherichia coli 2018; assay: as above; details: for MIC Esch. 2018: in vitro; for MIC: Escherichia coli, 2018, in vitro, read-out: MIC Esch. 2018
In short: (§3)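 MIC (µg/ml) by agar dilution per Ericsson and Sherris in DST agar; lowest concentration still inhibiting growth of the test organism.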

[5] = test system: Proteus morganii 2359; assay: as above; details: for MIC Prot. 2359: in vitro; for MIC: Morganella morganii, 2359, in vitro, read-out: MIC Prot. 2359
In short: as §3

[6] = test system: Proteus morganii 1518; assay: as above; details: for MIC Prot. 1518: in vitro; for MIC: Morganella morganii, 1518, in vitro, read-out: MIC Prot. 1518
In short: as §3

[7] = test system: Staphylococcus aureus 10B; assay: as above; details: in vitro; for MIC: Staphylococcus aureus, 10B, read-out: MIC Staph. 10B
In short: as §3

[8] = test system: Escherichia coli 205; assay: as above; details: for MIC Esch. 205: in vitro; for MIC: Escherichia coli, 205, in vitro, read-out: MIC Esch. 205
In short: as §3

[9] = test system: Pseudomonas aeruginosa K 799/61; assay: as above; details: for MIC Pseu. 799: in vitro, agar dilution, DST agar; for MIC: Pseudomonas aeruginosa, K799/61, read-out: MIC Pseu. 799
In short: as §3

[10] = test system: Salmonella Typhimurium 277; assay: as above; details: in vitro; for MIC: Salmonella enterica, TYPHIMURIUM, read-out: MIC Salm. 277
In short: as §3

[11] = test system: Staphylococcus aureus 2999; assay: as above; details: for MIC Staph. 2999: in vitro; for MIC: Staphylococcus aureus, 2999, in vitro, read-out: MIC Staph. 2999
In short: as §3

Compound	Hemmwirkung auf Staphylococcus aureus [1]	Hemmung der Enterobacterien [2]	MIC [4] [µg/mL]	MIC [5] [µg/mL]	MIC [6] [µg/mL]	MIC [7] [µg/mL]	MIC [8] [µg/mL]	MIC [9] [µg/mL]	MIC [10] [µg/mL]	MIC [11] [µg/mL]	further results
3-(4-Methylpiperazinyl)-methylenamino-Rifamycin S [Verbindung 88]	deutliche Hemmwirkung	wirksam hemmen	–	–	–	–	–	–	–	–	–
3-(4-Phenylpiperazinyl)methylenamino-Rifamycin S [Verbindung 91]	deutliche Hemmwirkung	wirksam hemmen	–	–	–	–	–	–	–	–	–
3-Indolinylmethylenamino-Rifamycin S [Verbindung 82]	deutliche Hemmwirkung	wirksam hemmen	–	–	–	–	–	–	–	–	–
3-Thiomorpholinylmethylenamino-Rifamycin S [Verbindung 87]	deutliche Hemmwirkung	wirksam hemmen	–	–	–	–	–	–	–	–	–
4-(1-Perhydroazocinyl)-imidazolo[4,5-c]rifamycin SV [Verbindung 28]	–	–	–	–	–	–	–	–	–	–	MIC Myc. tub. [3]: 0.97 µg/mL; MIC Esch. 2018 [4]: 4 µg/mL; MIC Prot. 2359 [5]: 2 µg/mL; MIC Prot. 1518 [6]: 2 µg/mL; MIC Staph. 10B [7]: 0.005 µg/mL; MIC Esch. 205 [8]: 4 µg/mL; MIC Pseu. 799 [9]: 8 µg/mL; MIC Salm. 277 [10]: 16 µg/mL; MIC Staph. 2999 [11]: 0.005 µg/mL
4-Pyrrolidinyl-imidazolo[4,5-c]rifamycin SV [Verbindung 19]	deutliche Hemmwirkung	wirksam hemmen	–	–	–	–	–	–	–	–	MIC Myc. tub. [3]: 0.48 µg/mL; MIC Esch. 2018 [4]: 4 µg/mL; MIC Prot. 2359 [5]: 4 µg/mL; MIC Prot. 1518 [6]: 4 µg/mL; MIC Staph. 10B [7]: 0.005 µg/mL; MIC Esch. 205 [8]: 2 µg/mL; MIC Pseu. 799 [9]: 8 µg/mL; MIC Salm. 277 [10]: 8 µg/mL; MIC Staph. 2999 [11]: 0.005 µg/mL
4-[8-Aza-1,4-dioxaspiro-(4,5)-8-decyl]-imidazolo[4,5-c]-rifamycin SV [Verbindung 25]	–	–	–	–	–	–	–	–	–	–	MIC Myc. tub. [3]: 0.97 µg/mL; MIC Esch. 2018 [4]: 16 µg/mL; MIC Prot. 2359 [5]: 8 µg/mL; MIC Prot. 1518 [6]: 8 µg/mL; MIC Staph. 10B [7]: 0.005 µg/mL; MIC Esch. 205 [8]: 8 µg/mL; MIC Pseu. 799 [9]: 16 µg/mL; MIC Salm. 277 [10]: 16 µg/mL; MIC Staph. 2999 [11]: 0.005 µg/mL
COC1C=COC2(C)Oc3c(C)c(O)c4c(O)c(c5nc(N6CCN(CC7CCCCC7)CC6)[nH]c5c4c3C2=O)NC(=O)C(C)=CC=CC(C)C(O)C(C)C(O)C(C)C(OC(C)=O)C1C (centres unmarked) [Verbindung 5, 4-(4-Cyclohexylmethyl-piperazinyl)-imidazolo[4,5-c]rifamycin SV]	–	–	4 (≈ 4.43 µM)	16 (≈ 17.7 µM)	8 (≈ 8.87 µM)	0.005 (≈ 0.00554 µM)	4 (≈ 4.43 µM)	16 (≈ 17.7 µM)	8 (≈ 8.87 µM)	0.005 (≈ 0.00554 µM)	MIC [3]: 1.9 µg/mL (≈ 2.11 µM)
CCN(CC)CCN(CC)c1nc2c([nH]1)c1c(O)c3c(O)c(C)c4c(c32)C(=O)[C@@](C)(O/C=C/[C@H](OC)[C@@H](C)[C@@H](OC(C)=O)[C@H](C)[C@H](O)[C@H](C)[C@@H](O)[C@@H](C)/C=C/C=C(/C)C(=O)N1)O4 [Verbindung 18, 4-[N-Ethyl-N-(2-diethylaminoethyl)-amino]-imidazolo-[4,5-c]rifamycin SV]	–	–	4 (≈ 4.63 µM)	2 (≈ 2.31 µM)	4 (≈ 4.63 µM)	0.005 (≈ 0.00579 µM)	2 (≈ 2.31 µM)	8 (≈ 9.26 µM)	16 (≈ 18.5 µM)	0.005 (≈ 0.00579 µM)	MIC [3]: 0.48 µg/mL (≈ 0.556 µM)
CO[C@H]1/C=C/O[C@@]2(C)Oc3c(C)c(O)c4c(O)c(c5nc(N6CCN(c7cccc(C(F)(F)F)c7)CC6)[nH]c5c4c3C2=O)NC(=O)/C(C)=C\C=C\[C@H](C)[C@H](O)[C@@H](C)[C@@H](O)[C@@H](C)[C@H](OC(C)=O)[C@@H]1C [Verbindung 53, 4-[4-(3-Trifluormethylphenyl)-piperazinyl]-imidazolo-[4,5-c]rifamycin SV]	–	–	8 (≈ 8.42 µM)	8 (≈ 8.42 µM)	2 (≈ 2.11 µM)	0.01 (≈ 0.0105 µM)	8 (≈ 8.42 µM)	32 (≈ 33.7 µM)	32 (≈ 33.7 µM)	0.01 (≈ 0.0105 µM)	–
CO[C@H]1/C=C/O[C@@]2(C)Oc3c(C)c(O)c4c(O)c(c5nc(N6CCN(CC7CC7)CC6)[nH]c5c4c3C2=O)NC(=O)/C(C)=C\C=C\[C@H](C)[C@H](O)[C@@H](C)[C@@H](O)[C@@H](C)[C@H](OC(C)=O)[C@@H]1C [Verbindung 54, 4-(4-Cyclopropylmethylpiperazinyl)-imidazolo[4,5-c]rifamycin SV]	–	–	8 (≈ 9.3 µM)	8 (≈ 9.3 µM)	8 (≈ 9.3 µM)	0.005 (≈ 0.00581 µM)	8 (≈ 9.3 µM)	16 (≈ 18.6 µM)	32 (≈ 37.2 µM)	0.005 (≈ 0.00581 µM)	–
CO[C@H]1/C=C/O[C@@]2(C)Oc3c(C)c(O)c4c(O)c(c5nc(N6CCN(CC7CCCC7)CC6)[nH]c5c4c3C2=O)NC(=O)/C(C)=C\C=C\[C@H](C)[C@H](O)[C@@H](C)[C@@H](O)[C@@H](C)[C@H](OC(C)=O)[C@@H]1C [Verbindung 55, 4-(4-Cyclopentylmethylpiperazinyl)-imidazolo[4,5-c]-rifamycin SV]	–	–	1 (≈ 1.13 µM)	2 (≈ 2.25 µM)	2 (≈ 2.25 µM)	0.01 (≈ 0.0113 µM)	8 (≈ 9.01 µM)	32 (≈ 36 µM)	32 (≈ 36 µM)	0.001 (≈ 0.00113 µM)	–
CO[C@H]1/C=C/O[C@@]2(C)Oc3c(C)c(O)c4c(O)c(c5nc(N6CCN(Cc7ccccc7)CC6)[nH]c5c4c3C2=O)NC(=O)/C(C)=C\C=C\[C@H](C)[C@H](O)[C@@H](C)[C@@H](O)[C@@H](C)[C@H](OC(C)=O)[C@@H]1C [Verbindung 57, 4-(4-Benzylpiperazinyl)-imidazolo[4,5-c]rifamycin SV]	–	–	4 (≈ 4.46 µM)	4 (≈ 4.46 µM)	4 (≈ 4.46 µM)	0.005 (≈ 0.00558 µM)	8 (≈ 8.93 µM)	16 (≈ 17.9 µM)	16 (≈ 17.9 µM)	0.005 (≈ 0.00558 µM)	MIC [3]: 0.97 µg/mL (≈ 1.08 µM)
CO[C@H]1/C=C/O[C@@]2(C)Oc3c(C)c(O)c4c(O)c(c5nc(N6CCN(c7ccccn7)CC6)[nH]c5c4c3C2=O)NC(=O)/C(C)=C\C=C\[C@H](C)[C@H](O)[C@@H](C)[C@@H](O)[C@@H](C)[C@H](OC(C)=O)[C@@H]1C [Verbindung 59, 4-[4-(2-Pyridyl)-piperazinyl]-imidazolo[4,5-c]rifamycin SV]	–	–	8 (≈ 9.06 µM)	8 (≈ 9.06 µM)	2 (≈ 2.26 µM)	0.01 (≈ 0.0113 µM)	8 (≈ 9.06 µM)	8 (≈ 9.06 µM)	32 (≈ 36.2 µM)	0.01 (≈ 0.0113 µM)	–
CO[C@H]1/C=C/O[C@@]2(C)Oc3c(C)c(O)c4c(O)c(c5nc(N6CCN(Cc7ccccn7)CC6)[nH]c5c4c3C2=O)NC(=O)/C(C)=C\C=C\[C@H](C)[C@H](O)[C@@H](C)[C@@H](O)[C@@H](C)[C@H](OC(C)=O)[C@@H]1C [Verbindung 60, 4-[4-(2-Pyridylmethyl)-piperazinyl]-imidazolo[4,5-c]-rifamycin SV]	–	–	32 (≈ 35.7 µM)	32 (≈ 35.7 µM)	32 (≈ 35.7 µM)	0.02 (≈ 0.0223 µM)	32 (≈ 35.7 µM)	64 (≈ 71.3 µM)	128 (≈ 143 µM)	0.02 (≈ 0.0223 µM)	–
